# Target: T1, human Trk A kinase (Homo sapiens, UniProt P04629)
# T1 construct: HIS; made in house; host or cells: SF9 insect cells
# Assay: Trk A Assay (Alphascreen kinase assay)
# Assay type: biochemical
# Details: 70 μM ATP, 20 minutes, room temperature, read-out: IC50 (Trk inhibitory activity)
# Description: Trk A kinase activity was measured for its ability to phosphorylate synthetic tyrosine residues within a generic polypeptide substrate using an Amplified Luminescent Proximity Assay (Alphascreen) technology (PerkinElmer, 549 Albany Street, Boston, Mass.).
# To measure Trk A kinase activity, the intracellular domain of a HIS-tagged human Trk A kinase (amino acids 442-796 of Trk A, Swiss-Prot Primary Accession Number P04629) was expressed in SF9 cells and purified using standard nickel column chromatography. After incubation of the kinase with a biotinylated substrate and adenosine triphosphate (ATP) for 20 minutes at room temperature, the kinase reaction was stopped by the addition of 30 mM ethylenediaminetetraacetic acid (EDTA). The reaction was performed in 384 well microtitre plates and the reaction products were detected with the addition of strepavidin coated Donor Beads and phosphotyrosine-specific antibodies coated Acceptor Beads using the EnVision Multilabel Plate Reader after an overnight incubation at room temperature.
# T1 sequence (P04629 442-796): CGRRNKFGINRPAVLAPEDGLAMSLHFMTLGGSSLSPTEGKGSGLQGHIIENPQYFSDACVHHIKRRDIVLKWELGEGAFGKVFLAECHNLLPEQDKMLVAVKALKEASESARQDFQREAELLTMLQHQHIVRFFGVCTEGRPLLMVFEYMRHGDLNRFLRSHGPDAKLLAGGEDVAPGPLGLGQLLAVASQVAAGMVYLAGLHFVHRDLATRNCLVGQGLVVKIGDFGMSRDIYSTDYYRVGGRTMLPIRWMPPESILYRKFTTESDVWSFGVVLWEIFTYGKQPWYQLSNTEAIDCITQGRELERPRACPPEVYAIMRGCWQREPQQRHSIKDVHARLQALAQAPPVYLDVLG
row,IC50 [nM],Structure (SMILES)
1,36,"C[C@H](Nc1nc(Nc2cc(C3CC3)[nH]n2)ncc1C#N)c1ccc(F)cc1 [Example 4, 2-[(5-Cyclopropyl-1H-pyrazol-3-yl)amino]-4-{[(1S)-1-(4-fluorophenyl)ethyl]amino}pyrimidine-5-carbonitrile]"
2,106,"Cc1cnc(Nc2cc(C3CC3)[nH]n2)nc1N[C@@H](CO)c1ccc(F)cc1 [Example 5, (2R)-2-({2-[(5-Cyclopropyl-1H-pyrazol-3-yl)amino]-5-methylpyrimidin-4-yl}amino)-2-(4-fluorophenyl)ethanol]"
3,3940,"Cc1cc(Nc2ncc(Cl)c(N[C@@H](CO)c3ccc(F)cc3)n2)n[nH]1 [Example 7, (2R)-2-({5-Chloro-2-[(5-methyl-1H-pyrazol-3-yl)amino]pyrimidin-4-yl}amino)-2-(4-fluorophenyl)ethanol]"
